# Laboratory results published in patent publication US11959083B2, “Immunosuppression-reverting oligonucleotides inhibiting the expression of CD39” (Secarna Pharmaceuticals GmbH & Co. KG, priority 2016, dated 2024).
# l = locked nucleic acid (LNA); d = 2'-deoxy (DNA)
# Key:
# hCD39 mRNA [1] = assay: hCD39 mRNA knockdown efficacy screen in A-172 cells (single dose, gymnotic delivery, QuantiGene Singleplex); type: cell-based, human; settings: 10 μM; for Mean hCD39 mRNA expression (relative to untreated cells set as 1): first screening round; for Mean hCD39 mRNA expression (relative to untreated cells set as 1) / Relative hCD39 mRNA expression (compared to non-treated cells): normalized to HPRT1; for Relative hCD39 mRNA expression (compared to non-treated cells): second screening round
# Summary of the method: (§1)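 Antisense oligonucleotides given once at 10 μM without transfection reagent (gymnotic) to HDLM-2 or A-172 cells for 3 days. hCD39 mRNA measured by QuantiGene Singleplex, normalized to HPRT1 and expressed relative to untreated cells; triplicate means.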
# hCD39 mRNA [2] = assay: hCD39 mRNA knockdown efficacy screen in HDLM-2 cells (single dose, gymnotic delivery, QuantiGene Singleplex); type: cell-based, human; settings: 10 μM; for Mean hCD39 mRNA expression normalized to HPRT1 relative to untreated control = 1: first screening round; for Relative hCD39 mRNA expression (compared to non-treated cells): second screening round, normalized to HPRT1
# Summary of the method: as §1
# hCD39 protein = hCD39 protein expression in primary human CD8+ and CD4+ T cells after oligonucleotide removal (flow cytometry); type: cell-based; settings: 10 μM for six days with anti-CD3, compared to untreated control cells
# Protocol: Thereafter, oligonucleotides and anti-CD3 were removed and hCD39 protein expression was analyzed by flow cytometry three, six, and eleven days after oligonucleotide removal. CD39 protein expression is depicted as mean fluorescence intensity (MFI) and was calculated by subtracting the MFI of the unspecific isotype control from the MFI of CD39. Depicted is the mean of duplicate wells+/−SD.
# A04040H had shown very potent activity in suppressing hCD39 expression on mRNA- and protein-level in human cancer cell lines. In the next step, its activity in primary human T cells was investigated. Furthermore, the persistence of the effects after antisense oligonucleotide removal was examined. Therefore, CD8^+ and CD4^+ T cells were isolated from peripheral blood and activated for a total treatment time of six days with anti-CD3 in the presence of 10 μM of the hCD39 specific antisense oligonucleotide A04040H (black column) or the control oligonucleotide S6 (white column), which is not complementary to any human mRNA. […] Thereafter, oligonucleotides were removed and hCD39 protein expression was analyzed three, six, and eleven days after oligonucleotide removal by flow cytometry (FIG. 9).
Substance,Mean hCD39 mRNA expression (relative to untreated cells set as 1) (hCD39 mRNA [1]; 3 days),Relative hCD39 mRNA expression (compared to non-treated cells) (hCD39 mRNA [1]; 3 days),"Residual hCD39 mRNA expression relative to untreated cells (set as 1) (hCD39 mRNA [1]; 3 days, third screening round)",Mean hCD39 mRNA expression normalized to HPRT1 relative to untreated control = 1 (hCD39 mRNA [2]; 3 days),Relative hCD39 mRNA expression (compared to non-treated cells) (hCD39 mRNA [2]; 3 days),"Residual hCD39 mRNA expression relative to untreated cells (set as 1) (hCD39 mRNA [2]; 3 days, third screening round)",hCD39 protein expression (MFI) after oligonucleotide removal (hCD39 protein),influence on the expression of hCD39 (hCD39 mRNA [1]),influence on the expression of hCD39 (hCD39 mRNA [2])
"+G*+T*+T*T*G*T*G*T*G*A*G*A*G*C*+T*+T (antisense GTTTGTGTGAGAGCTT; sugars from the 5' end l3 d11 l2, all phosphorothioate, methylation of C not given here) [A04040H]",0.07,0.04,0.05,0.08,0.06,0.01,significantly suppressed hCD39 protein expression for a duration of at least six days after removal,–,–
"+C*+G*+T*T*T*A*G*G*C*T*A*T*G*T*A*+C*+T*+T (CGTTTAGGCTATGTACTT; chemistry not fully specified) [neg1, negative control antisense oligonucleotide not hybridizing with CD39, described in WO2014154843 A1, reference compound]",1.36,0.79,–,1.09,1.09,–,–,no negative influence on the expression of hCD39,no negative influence on the expression of hCD39
